According to ChEMBL document CHEMBL4699518, “Cytotoxic Xanthone Derivatives from the Mangrove-Derived Endophytic Fungus Peniophora incarnata Z4” (J Nat Prod, 2020):

How the values were obtained:
Assay type in all cases: functional, cell-based
MCF7 = test: Cytotoxicity against human MCF7 cells assessed as reduction in cell viability after 48 hrs by MTT assay; conditions: MCF7, 48 h
HL-60 = test: Cytotoxicity against human HL-60 cells assessed as reduction in cell viability after 48 hrs by MTT assay; conditions: HL-60, 48 h
A-375 = test: Cytotoxicity against human A-375 cells assessed as reduction in cell viability after 48 hrs by MTT assay; conditions: A-375, 48 h

## COC(=O)CCc1oc2cccc(O)c2c(=O)c1[C@H](O)C(=O)OC
MCF7
  IC50: > 10 µM
HL-60
  IC50: > 10 µM
A-375
  IC50: > 10 µM

## COC(=O)c1c(N[C@@H]2Cc3oc4cccc(O)c4c(=O)c3[C@](O)(C(=O)OC)[C@@H]2O)ccc2oc3cccc(O)c3c(=O)c12
MCF7
  IC50: > 10 µM
HL-60
  IC50: > 10 µM
A-375
  IC50: > 10 µM

## COC(=O)c1c(O)ccc2oc3cc(O)cc(O)c3c(=O)c12
MCF7
  IC50: > 10 µM
HL-60
  IC50: > 10 µM
A-375
  IC50: > 10 µM

## COC(=O)[C@@]1(O)c2c(oc3cccc(O)c3c2=O)C[C@@H](OC)[C@H]1O
MCF7
  IC50: > 10 µM
HL-60
  IC50: > 10 µM
A-375
  IC50: > 10 µM

## COC(=O)[C@@]1(O)c2c(oc3cccc(O)c3c2=O)[C@@H](O)C[C@@H]1O
MCF7
  IC50: > 10 µM
HL-60
  IC50: > 10 µM
A-375
  IC50: > 10 µM

## COC(=O)[C@@]1(O)c2c(oc3cccc(O)c3c2=O)C[C@@H](S)[C@@H]1O
MCF7
  IC50: 6.5 µM
HL-60
  IC50: 4.9 µM
A-375
  IC50: 8.6 µM

## O=C1N[C@@H]2Cc3oc4cccc(O)c4c(=O)c3[C@@]1(O)[C@@H]2O
MCF7
  IC50: > 10 µM
HL-60
  IC50: > 10 µM
A-375
  IC50: > 10 µM

## COc1cccc2c1C(=O)c1c(O)c3c(c(O)c1C2=O)C[C@@](O)(C(=O)CO)C[C@@H]3O[C@H]1C[C@H](N)[C@H](O)[C@H](C)O1 [DOXORUBICIN]
HL-60
  IC50: 1.2 µM
A-375
  IC50: 2.1 µM
